US10487116B2, “Immunotherapy against several tumors, such as lung cancer, including NSCLC” (IMMATICS BIOTECHNOLOGIES GMBH, priority 2013, dated 2019)
Where two headings read alike, the source gives them in different places.

Test system: CD8+ T cells
Test: In vitro T-cell priming assay (aAPCs loaded with peptide/MHC and anti-CD28, pMHC multimer readout)
Format: cell-based, human
Details: for Wells: positive wells
Source text: In order to obtain information regarding the immunogenicity of the TUMAPs of the present invention, we performed investigations using an in vitro T-cell priming assay based on repeated stimulations of CD8+ T cells with artificial antigen presenting cells (aAPCs) loaded with peptide/MHC complexes and anti-CD28 antibody.
In order to perform in vitro stimulations by artificial antigen presenting cells loaded with peptide-MHC complex (pMHC) and anti-CD28 antibody, we first isolated CD8+ T cells from fresh HLA-A*02 leukapheresis products via positive selection using CD8 microbeads (Miltenyi Biotec, Bergisch-Gladbach, Germany) of healthy donors obtained from the Transfusion Medicine Tuebingen, Germany, after informed consent.
Isolated CD8+ lymphocytes or PBMCs were incubated until use in T-cell medium (TCM) consisting of RPMI-Glutamax (Invitrogen, Karlsruhe, Germany) supplemented with 10% heat inactivated human AB serum (PAN-Biotech, Aidenbach, Germany), 100 U/ml Penicillin/100 μg/ml Streptomycin (Cambrex, Cologne, Germany), 1 mM sodium pyruvate (CC Pro, Oberdorla, Germany), 20 μg/ml Gentamycin (Cambrex). 2.5 ng/ml IL-7 (PromoCell, Heidelberg, Germany) and 10 U/ml IL-2 (Novartis Pharma, Nurnberg, Germany) were also added to the TCM at this step.
Generation of pMHC/anti-CD28 coated beads, T-cell stimulations and readout was performed in a highly defined in vitro system using four different pMHC molecules per stimulation condition and 8 different pMHC molecules per readout condition.
All pMHC complexes used for aAPC loading and cytometric readout were derived from UV-induced MHC ligand exchange (Rodenko et al., 2006) with minor modifications. In order to determine the amount of pMHC monomer obtained by exchange we performed streptavidin-based sandwich ELISAs according to (Rodenko et al., 2006).
The purified co-stimulatory mouse IgG2a anti human CD28 Ab 9.3 (Jung et al., 1987) was chemically biotinylated using Sulfo-N-hydroxysuccinimidobiotin as recommended by the manufacturer (Perbio, Bonn, Germany). Beads used were 5.6 μm diameter streptavidin coated polystyrene particles (Bangs Laboratories, Ill., USA).
pMHC used for positive and negative control stimulations were A*0201/MLA-001 (peptide […] from modified Melan-A/MART-1) and A*0201/DDX5-001 ([…] from DDX5), respectively.
800.000 beads/200 μl were coated in 96-well plates in the presence of 4×12.5 ng different biotin-pMHC, washed and 600 ng biotin anti-CD28 were added subsequently in a volume of 200 μl. Stimulations were initiated in 96-well plates by co-incubating 1×10^6 CD8+ T cells with 2×10^5 washed coated beads in 200 μl TCM supplemented with 5 ng/ml IL-12 (PromoCell) for 3-4 days at 37° C. Half of the medium was then exchanged by fresh TCM supplemented with 80 U/ml IL-2 and incubating was continued for 3-4 days at 37° C. This stimulation cycle was performed for a total of three times. For the pMHC multimer readout using 8 different pMHC molecules per condition, a two-dimensional combinatorial coding approach was used as previously described (Andersen et al., 2012) with minor modifications encompassing coupling to 5 different fluorochromes. Finally, multimeric analyses were performed by staining the cells with Live/dead near IR dye (Invitrogen, Karlsruhe, Germany), CD8-FITC antibody clone SK1 (BD, Heidelberg, Germany) and fluorescent pMHC multimers. For analysis, a BD LSRII SORP cytometer equipped with appropriate lasers and filters was used. Peptide specific cells were calculated as percentage of total CD8+ cells. Evaluation of multimeric analysis was done using the FlowJo software (Tree Star, Oreg., USA). In vitro priming of specific multimer+CD8+ lymphocytes was detected by comparing to negative control stimulations.

[1] = in vitro immunogenicity, trifluoro-acetate salts of the peptides
[2] = in vitro immunogenicity, responding healthy donors, trifluoro-acetate salts of the peptides

## 1 (ILFEINPKL; listed as Homo sapiens) [compound 1]
[1]
  Wells: + (<20% = +)
[2]
  Donors: ++ (20%-49% = ++)

## 2 (KIQEMQHFL; listed as Homo sapiens) [compound 2]
[1]
  Wells: + (<20% = +)
[2]
  Donors: ++ (20%-49% = ++)

## 3 (ALDENLHQL; listed as Homo sapiens) [compound 3]
[1]
  Wells: + (<20% = +)
[2]
  Donors: ++ (20%-49% = ++)

## 4 (NLIEKSIYL; listed as Homo sapiens) [compound 4]
[1]
  Wells: + (<20% = +)
[2]
  Donors: ++ (20%-49% = ++)

## 7 (TLWYRAPEV; listed as Homo sapiens) [compound 7]
[1]
  Wells: ++ (20%-49% = ++)
[2]
  Donors: ++++ (>70 = ++++)

## 8 (SMSGYDQVL; listed as Homo sapiens) [compound 8]
[1]
  Wells: + (<20% = +)
[2]
  Donors: ++ (20%-49% = ++)

## 9 (ALMDKEGLTAL; listed as Homo sapiens) [compound 9]
[1]
  Wells: + (<20% = +)
[2]
  Donors: + (<20% = +)

## 10 (VLSVVEVTL; listed as Homo sapiens) [compound 10]
[1]
  Wells: + (<20% = +)
[2]
  Donors: ++ (20%-49% = ++)

## 11 (VLLPVEVATHYL; listed as Homo sapiens) [compound 11]
  Donors: 100%
[1]
  Wells: ++ (20%-49% = ++)
[2]
  Donors: ++++ (>70 = ++++)

## 15 (KLAVALLAA; listed as Homo sapiens) [compound 15]
[1]
  Wells: ++ (20%-49% = ++)
[2]
  Donors: ++ (20%-49% = ++)

## 16 (TVIGFLLPFA; listed as Homo sapiens) [compound 16]
[1]
  Wells: + (<20% = +)
[2]
  Donors: ++ (20%-49% = ++)

## 18 (TLYPHTSQV; listed as Homo sapiens) [compound 18]
[1]
  Wells: + (<20% = +)
[2]
  Donors: +++ (50%-70%, +++)

## 19 (AVVEFLTSV; listed as Homo sapiens) [compound 19]
[1]
  Wells: + (<20% = +)
[2]
  Donors: ++ (20%-49% = ++)

## 21 (AILDTLYEV; listed as Homo sapiens) [compound 21]
[1]
  Wells: ++ (20%-49% = ++)
[2]
  Donors: ++ (20%-49% = ++)

## 22 (FLIPIYHQV; listed as Homo sapiens) [compound 22]
[1]
  Wells: + (<20% = +)
[2]
  Donors: +++ (50%-70%, +++)

## 24 (FLVDGSWSV; listed as Homo sapiens) [compound 24]
[1]
  Wells: + (<20% = +)
[2]
  Donors: ++ (20%-49% = ++)

## 30 (KIYNEFISV; listed as Homo sapiens) [compound 30]
[1]
  Wells: + (<20% = +)
[2]
  Donors: ++ (20%-49% = ++)

## 31 (AIDGNNHEV; listed as Homo sapiens) [compound 31]
[1]
  Wells: + (<20% = +)
[2]
  Donors: +++ (50%-70%, +++)

## 32 (KLSWDLIYL; listed as Homo sapiens) [compound 32]
[1]
  Wells: + (<20% = +)
[2]
  Donors: +++ (50%-70%, +++)

## 33 (ALLRTVVSV; listed as Homo sapiens) [compound 33]
[1]
  Wells: + (<20% = +)
[2]
  Donors: +++ (50%-70%, +++)

## 35 (VLFPNLKTV; listed as Homo sapiens) [compound 35]
[1]
  Wells: + (<20% = +)
[2]
  Donors: ++ (20%-49% = ++)

## 37 (VLAPLFVYL; listed as Homo sapiens) [compound 37]
  Donors: 100%
[1]
  Wells: + (<20% = +)
[2]
  Donors: ++++ (>70 = ++++)

## 38 (SLHFLILYV; listed as Homo sapiens) [compound 38]
[1]
  Wells: + (<20% = +)
[2]
  Donors: ++ (20%-49% = ++)

## 39 (RLLDSVSRL; listed as Homo sapiens) [compound 39]
[1]
  Wells: + (<20% = +)
[2]
  Donors: ++ (20%-49% = ++)

## 40 (GLTDNIHLV; listed as Homo sapiens) [compound 40]
[1]
  Wells: + (<20% = +)
[2]
  Donors: ++ (20%-49% = ++)

## 42 (SLWGGDVVL; listed as Homo sapiens) [compound 42]
  Donors: 100%
[1]
  Wells: ++ (20%-49% = ++)
[2]
  Donors: ++++ (>70 = ++++)
